The source of these data is BindingDB's records for doi:10.1002/bip.20588 (University of California Davis, 2006).

*1 amine or outer side, *2 acyl side, *3 side chain or, on linkers, in order; H or OH if unused. Where a SMILES comes first, the peptide text is derived from it. [ ]: non-standard residue; d: D form. The star is where a group is joined. ξ: configuration not given here. Pro(5R-Ph) = O=C(O)[C@@H]1CC[C@H](c2ccccc2)N1; Leu(4,5-dehydro) = C=C(C)C[C@H](N)C(=O)O; X14 = Cc1ccccc1NC(=O)Nc1ccc(N*)cc1; Ala(cPr) = N[C@@H](CC1CC1)C(=O)O; X1 = O=C(Cc1ccc(N[*:1])cc1)[*:2]; Aad = N[C@@H](CCCC(=O)O)C(=O)O; Ile(3ξ) = CCC(C)[C@H](N)C(=O)O; NH(2-Me-phenyl) = Cc1ccccc1N*; Tle = CC(C)(C)[C@H](N)C(=O)O; hLeu = CC(C)CC[C@H](N)C(=O)O; Isovaleryl = CC(C)CC(=O)*; Dpg = CCCC(N)(CCC)C(=O)O; Heptanoyl = CCCCCCC(=O)*; Nle = CCCC[C@H](N)C(=O)O; Dap = NC[C@H](N)C(=O)O; CO = O=C([*:1])[*:2]

The first test has as its target Integrin alpha-4/beta-1 (Homo sapiens, UniProt P05556+P13612, T112H). The test can be described thus: Jurkat Cell Adhesion Inhibition Assay.
Conditions: not given
How it is done:
Binding affinities (IC50) of the ligands were studied in a Jurkat cell adhesion assay by inhibiting the alpha-4/beta-1 mediated cell adhesion to CS-1 peptides. The 96-well plates were coated with neutravidin, followed by biotinconjugated CS-1 peptides. Jurkat cells with series dilutions of tested ligands in binding buffer were added and allowed to bind for 30 min. Bound cells were recorded using a 96-well plate reader at 570 nm. IC50 values were calculated from inhibition curves resulting from the concentration-dependent inhibition
On to `CCCC[C@H](NC(=O)Nc1ccc(NC(=O)Nc2ccccc2C)cc1)C(=O)N[C@@H](CC(=O)O)C(=O)N[C@H](C(=O)N1CCC[C@H]1C(N)=O)C(C)CC` (stereo partly drawn) [(3S)-3-{[(2S,3S)-1-[(2S)-2-carbamoylpyrrolidin-1-yl]-3-methyl-1-oxopentan-2-yl]carbamoyl}-3-[(2S)-2-{[(4-{[(2-methylphenyl)carbamoyl]amino}phenyl)carbamoyl]amino}hexanamido]propanoic acid] ({X14-CO}-[Nle]D[Ile(3ξ)]P-NH2), for which the IC50 came out at 54 nM. Still for that read-out and setting: with `CCC(C)[C@H](NC(=O)[C@H](CC(=O)O)NC(=O)[C@@H](NC(=O)Cc1ccc(NC(=O)Nc2ccccc2C)cc1)C(C)(C)C)C(=O)N1CCC[C@H]1C(N)=O` (stereo partly drawn) [(3S)-3-{[(2S,3S)-1-[(2S)-2-carbamoylpyrrolidin-1-yl]-3-methyl-1-oxopentan-2-yl]carbamoyl}-3-[(2S)-3,3-dimethyl-2-[1-(4-{[(2-methylphenyl)carbamoyl]amino}phenyl)acetamido]butanamido]propanoic acid] ({NH(2-Me-phenyl)-CO}-[X1][Tle]D[Ile(3ξ)]P-NH2) the figure was 7.1 nM; with `CCC(C)[C@H](NC(=O)[C@H](CC(=O)O)NC(=O)[C@H](CNC(=O)CC(C)C)NC(=O)Cc1ccc(NC(=O)Nc2ccccc2C)cc1)C(=O)N1CCC[C@H]1C(N)=O` (stereo partly drawn) [(3S)-3-{[(2S,3S)-1-[(2S)-2-carbamoylpyrrolidin-1-yl]-3-methyl-1-oxopentan-2-yl]carbamoyl}-3-[(2S)-3-(3-methylbutanamido)-2-[1-(4-{[(2-methylphenyl)carbamoyl]amino}phenyl)acetamido]propanamido]propanoic acid] ({NH(2-Me-phenyl)-CO}-[X1][Dap](Isovaleryl)D[Ile(3ξ)]P-NH2), 63 nM. `CCC(C)[C@H](NC(=O)[C@H](CC(=O)O)NC(=O)[C@H](CC1CC1)NC(=O)Cc1ccc(NC(=O)Nc2ccccc2C)cc1)C(=O)N1CCC[C@H]1C(N)=O` (stereo partly drawn) [(3S)-3-{[(2S,3S)-1-[(2S)-2-carbamoylpyrrolidin-1-yl]-3-methyl-1-oxopentan-2-yl]carbamoyl}-3-[(2S)-3-cyclopropyl-2-[1-(4-{[(2-methylphenyl)carbamoyl]amino}phenyl)acetamido]propanamido]propanoic acid] ({NH(2-Me-phenyl)-CO}-[X1][Ala(cPr)]D[Ile(3ξ)]P-NH2): it took 64 nM to reach half-maximal inhibition (IC50). `CCCCCCC(=O)NC[C@H](NC(=O)Cc1ccc(NC(=O)Nc2ccccc2C)cc1)C(=O)N[C@@H](CC(=O)O)C(=O)N[C@H](C(=O)N1CCC[C@H]1C(N)=O)C(C)CC` (stereo partly drawn) [(3S)-3-{[(2S,3S)-1-[(2S)-2-carbamoylpyrrolidin-1-yl]-3-methyl-1-oxopentan-2-yl]carbamoyl}-3-[(2S)-3-heptanamido-2-[1-(4-{[(2-methylphenyl)carbamoyl]amino}phenyl)acetamido]propanamido]propanoic acid] ({NH(2-Me-phenyl)-CO}-[X1][Dap](Heptanoyl)D[Ile(3ξ)]P-NH2): the midpoint of inhibition, the IC50, lay at 312 nM. Still for that read-out and setting: with `C=C(C)C[C@H](NC(=O)Cc1ccc(NC(=O)Nc2ccccc2C)cc1)C(=O)N[C@@H](CC(=O)O)C(=O)N[C@H](C(=O)N1CCC[C@H]1C(N)=O)C(C)CC` (stereo partly drawn) [(3S)-3-{[(2S,3S)-1-[(2S)-2-carbamoylpyrrolidin-1-yl]-3-methyl-1-oxopentan-2-yl]carbamoyl}-3-[(2S)-4-methyl-2-[1-(4-{[(2-methylphenyl)carbamoyl]amino}phenyl)acetamido]pent-4-enamido]propanoic acid] ({NH(2-Me-phenyl)-CO}-[X1][Leu(4,5-dehydro)]D[Ile(3ξ)]P-NH2) the figure was 2.8 nM. The same measure, in the same setting: with `CCC(C)[C@H](NC(=O)[C@H](CC(=O)O)NC(=O)[C@H](CC(C)C)NC(=O)Cc1ccc(NC(=O)Nc2ccccc2C)cc1)C(=O)N1CCC[C@H]1C(N)=O` (stereo partly drawn) [(3S)-3-{[(2S,3S)-1-[(2S)-2-carbamoylpyrrolidin-1-yl]-3-methyl-1-oxopentan-2-yl]carbamoyl}-3-[(2S)-4-methyl-2-[1-(4-{[(2-methylphenyl)carbamoyl]amino}phenyl)acetamido]pentanamido]propanoic acid] ({NH(2-Me-phenyl)-CO}-[X1]LD[Ile(3ξ)]P-NH2) the figure was 1.9 nM; with `CCC(C)[C@H](NC(=O)[C@H](CC(=O)O)NC(=O)[C@H](CCC(C)C)NC(=O)Cc1ccc(NC(=O)Nc2ccccc2C)cc1)C(=O)N1CCC[C@H]1C(N)=O` (stereo partly drawn) [(3S)-3-{[(2S,3S)-1-[(2S)-2-carbamoylpyrrolidin-1-yl]-3-methyl-1-oxopentan-2-yl]carbamoyl}-3-[(2S)-5-methyl-2-[1-(4-{[(2-methylphenyl)carbamoyl]amino}phenyl)acetamido]hexanamido]propanoic acid] ({NH(2-Me-phenyl)-CO}-[X1][hLeu]D[Ile(3ξ)]P-NH2), 3 nM; with `CCCC(CCC)(NC(=O)Cc1ccc(NC(=O)Nc2ccccc2C)cc1)C(=O)N[C@@H](CC(=O)O)C(=O)N[C@H](C(=O)N1CCC[C@H]1C(N)=O)C(C)CC` (stereo partly drawn) [(3S)-3-{[(2S,3S)-1-[(2S)-2-carbamoylpyrrolidin-1-yl]-3-methyl-1-oxopentan-2-yl]carbamoyl}-3-{2-[1-(4-{[(2-methylphenyl)carbamoyl]amino}phenyl)acetamido]-2-propylpentanamido}propanoic acid] ({NH(2-Me-phenyl)-CO}-[X1][Dpg]D[Ile(3ξ)]P-NH2), 450 nM.

For the compound `CCCC[C@H](NC(=O)Cc1ccc(NC(=O)Nc2ccccc2C)cc1)C(=O)N[C@@H](CCCC(=O)O)C(=O)N[C@H](C(=O)N1CCC[C@H]1C(N)=O)C(C)CC` (stereo partly drawn) [(5S)-5-{[(2S,3S)-1-[(2S)-2-carbamoylpyrrolidin-1-yl]-3-methyl-1-oxopentan-2-yl]carbamoyl}-5-[(2S)-2-[1-(4-{[(2-methylphenyl)carbamoyl]amino}phenyl)acetamido]hexanamido]pentanoic acid] ({NH(2-Me-phenyl)-CO}-[X1][Nle][Aad][Ile(3ξ)]P-NH2), it took 3.4 nM to reach half-maximal inhibition (IC50).

Staying with this test, now noted: pH 7.5; 22 °C.
`CCCC[C@H](NC(=O)Cc1ccc(NC(=O)Nc2ccccc2C)cc1)C(=O)N[C@@H](CC(=O)O)C(=O)N[C@H](C(=O)N1CC(OCc2ccccc2)C[C@H]1C(N)=O)C(C)CC` (stereo partly drawn) [(3S)-3-{[(2S,3S)-1-[(2S)-4-(benzyloxy)-2-carbamoylpyrrolidin-1-yl]-3-methyl-1-oxopentan-2-yl]carbamoyl}-3-[(2S)-2-[1-(4-{[(2-methylphenyl)carbamoyl]amino}phenyl)acetamido]hexanamido]propanoic acid] yielded an IC50 of 5.3 nM. Still for that read-out and setting: with `CCCC[C@H](NC(=O)Cc1ccc(NC(=O)Nc2ccccc2C)cc1)C(=O)N[C@@H](CC(=O)O)C(=O)N[C@H](C(=O)N1[C@@H](c2ccccc2)CC[C@H]1C(N)=O)C(C)CC` (stereo partly drawn) [(3S)-3-{[(2S,3S)-1-[(2S,5R)-2-carbamoyl-5-phenylpyrrolidin-1-yl]-3-methyl-1-oxopentan-2-yl]carbamoyl}-3-[(2S)-2-[1-(4-{[(2-methylphenyl)carbamoyl]amino}phenyl)acetamido]hexanamido]propanoic acid] ({NH(2-Me-phenyl)-CO}-[X1][Nle]D[Ile(3ξ)][Pro(5R-Ph)]-NH2) the figure was 38 nM; with `CCCC[C@H](NC(=O)Cc1ccc(NC(=O)Nc2ccccc2C)cc1)C(=O)N[C@@H](CC(=O)O)C(=O)N[C@H](C(=O)N1Cc2ccccc2C[C@@H]1C(N)=O)C(C)CC` (stereo partly drawn) [(3S)-3-{[(2S,3S)-1-[(3R)-3-carbamoyl-1,2,3,4-tetrahydroisoquinolin-2-yl]-3-methyl-1-oxopentan-2-yl]carbamoyl}-3-[(2S)-2-[1-(4-{[(2-methylphenyl)carbamoyl]amino}phenyl)acetamido]hexanamido]propanoic acid], 3.2 nM. Same read-out and setting: with `CCCC[C@H](NC(=O)Cc1ccc(NC(=O)Nc2ccccc2C)cc1)C(=O)N[C@@H](CC(=O)O)C(=O)N[C@H](C(=O)N1CSC[C@H]1C(N)=O)C(C)CC` (stereo partly drawn) [(3S)-3-{[(2S,3S)-1-[(4R)-4-carbamoyl-1,3-thiazolidin-3-yl]-3-methyl-1-oxopentan-2-yl]carbamoyl}-3-[(2S)-2-[1-(4-{[(2-methylphenyl)carbamoyl]amino}phenyl)acetamido]hexanamido]propanoic acid] the figure was 3.1 nM; with `CCCC[C@H](NC(=O)Cc1ccc(NC(=O)Nc2ccccc2C)cc1)C(=O)N[C@@H](CC(=O)O)C(=O)N[C@H](C(=O)N1CSC[C@@H]1C(N)=O)C(C)CC` (stereo partly drawn) [(3S)-3-{[(2S,3S)-1-[(4S)-4-carbamoyl-1,3-thiazolidin-3-yl]-3-methyl-1-oxopentan-2-yl]carbamoyl}-3-[(2S)-2-[1-(4-{[(2-methylphenyl)carbamoyl]amino}phenyl)acetamido]hexanamido]propanoic acid], 3.2 nM.

For orientation: IC50 means the concentration that inhibits the measured activity by half. A higher IC50 goes with lower potency.
